Measured values published in PubChem BioAssay AID2060496 (Molecular Pharmacology Branch, DTP, NCI, 2025).

Tested on: 276233-004-R-J1-PDC complex spheroid viability
Experiment: Anticancer human tumor 276233-004-R-J1-PDC patient-derived colon adenocarcinoma cell line growth inhibition [GQUAD]
Settings: for IC50: curve of first compound; for viability, T/C: stronger effect = lower value
In short: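 Tumor cells were grown as complex spheroids with HUVEC endothelial cells and mesenchymal stem cells as stroma. G-quadruplex stabilizers were combined with targeted agents over half-log dilutions from near the clinical Cmax, or from 10 microM.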

[1] = second compound 0.0316 µM, first compound 0.0316 µM
[2] = second compound 0.0316 µM, first compound 0.1 µM
[3] = second compound 0.0316 µM, first compound 0.316 µM
[4] = second compound 0.0316 µM, first compound 1 µM
[5] = second compound 0.0316 µM, first compound 3.16 µM
[6] = second compound 0.0316 µM, first compound 10 µM
[7] = second compound 0.1 µM, first compound 0.0316 µM
[8] = second compound 0.1 µM, first compound 0.1 µM
[9] = second compound 0.1 µM, first compound 0.316 µM
[10] = second compound 0.1 µM, first compound 1 µM
[11] = second compound 0.1 µM, first compound 3.16 µM
[12] = second compound 0.1 µM, first compound 10 µM
[13] = second compound 0.316 µM, first compound 0.0316 µM
[14] = second compound 0.316 µM, first compound 0.1 µM
[15] = second compound 0.316 µM, first compound 0.316 µM
[16] = second compound 0.316 µM, first compound 1 µM
[17] = second compound 0.316 µM, first compound 3.16 µM
[18] = second compound 0.316 µM, first compound 10 µM
[19] = second compound 1 µM, first compound 0.0316 µM
[20] = second compound 1 µM, first compound 0.1 µM
[21] = second compound 1 µM, first compound 0.316 µM
[22] = second compound 1 µM, first compound 1 µM
[23] = second compound 1 µM, first compound 3.16 µM
[24] = second compound 1 µM, first compound 10 µM
[25] = second compound 3.16 µM, first compound 0.0316 µM
[26] = second compound 3.16 µM, first compound 0.1 µM
[27] = second compound 3.16 µM, first compound 0.316 µM
[28] = second compound 3.16 µM, first compound 1 µM
[29] = second compound 3.16 µM, first compound 3.16 µM
[30] = second compound 3.16 µM, first compound 10 µM
[31] = second compound 10 µM, first compound 0.0316 µM
[32] = second compound 10 µM, first compound 0.1 µM
[33] = second compound 10 µM, first compound 0.316 µM
[34] = second compound 10 µM, first compound 1 µM
[35] = second compound 10 µM, first compound 3.16 µM
[36] = second compound 10 µM, first compound 10 µM
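Further: spheroids exposed to drugs for seven days.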
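Wherever viability, T/C is given: 100% = DMSO vehicle control viability.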

In the case of `CCCS(=O)(=O)Nc1ccc(F)c(C(=O)c2c[nH]c3ncc(-c4ccc(Cl)cc4)cc23)c1F` + CN(C)c1ccc(Nc2c3ccc(NC(=O)CCN4CCCC4)cc3nc3cc(NC(=O)CCN4CCCC4)ccc23)cc1, the IC50 (second compound 0.0316 µM) is reported as > 10000 nM, the IC50 (second compound 0.1 µM) is reported as > 10000 nM and the IC50 (second compound 0.316 µM) is reported as > 10000 nM. For the same molecule, the IC50 (second compound 1 µM) was > 10000 nM, the IC50 (second compound 3.16 µM) was > 10000 nM and the IC50 (second compound 10 µM) was < 31.6 nM. It also gave a viability, T/C [1] of 81.6%, a viability, T/C [2] of 83.2% and a viability, T/C [3] of 78%. It also gave a viability, T/C [4] of 102%, a viability, T/C [5] of 91% and a viability, T/C [6] of 65.2%. The viability, T/C [7] was 76.4%, the viability, T/C [8] was 80% and the viability, T/C [9] was 78.2%. For the same molecule, the viability, T/C [10] was 77.1%, the viability, T/C [11] was 71% and the viability, T/C [12] was 70.8%. It also gave a viability, T/C [13] of 72.9%, a viability, T/C [14] of 64.3% and a viability, T/C [15] of 68.8%. The viability, T/C [16] was 63%, the viability, T/C [17] was 65.3% and the viability, T/C [18] was 55.1%. The viability, T/C [19] was 60.2%, the viability, T/C [20] was 58.2% and the viability, T/C [21] was 56.8%. For the same molecule, the viability, T/C [22] was 65.2%, the viability, T/C [23] was 53.3% and the viability, T/C [24] was 63.4%. For the same molecule, the viability, T/C [25] was 62.1%, the viability, T/C [26] was 56.6% and the viability, T/C [27] was 50.8%. It also gave a viability, T/C [28] of 46.1%, a viability, T/C [29] of 59.1% and a viability, T/C [30] of 55.6%. The viability, T/C [31] was 33.9%, the viability, T/C [32] was 45.9% and the viability, T/C [33] was 40.4%. It also gave a viability, T/C [34] of 38.2%, a viability, T/C [35] of 39.3% and a viability, T/C [36] of 56.6%.
`Cc1[nH]c2ccccc2c1CCNCc1ccc(/C=C/C(=O)NO)cc1` + CN(C)c1ccc(Nc2c3ccc(NC(=O)CCN4CCCC4)cc3nc3cc(NC(=O)CCN4CCCC4)ccc23)cc1 was tested, and the IC50 (second compound 0.0316 µM) was 178 nM, the IC50 (second compound 0.1 µM) was 169 nM and the IC50 (second compound 0.316 µM) was 166 nM. The IC50 (second compound 1 µM) was 47.7 nM, the IC50 (second compound 3.16 µM) was < 0.999 nM and the IC50 (second compound 10 µM) was < 0.999 nM. The viability, T/C (second compound 0.0316 µM, first compound 0.000999 µM) was 99.1%, the viability, T/C (second compound 0.0316 µM, first compound 0.00316 µM) was 79% and the viability, T/C (second compound 0.0316 µM, first compound 0.00999 µM) was 80.2%. It also gave a viability, T/C [1] of 84%, a viability, T/C (second compound 0.0316 µM, first compound 0.0999 µM) of 77.5% and a viability, T/C [3] of 23.2%. For the same molecule, the viability, T/C (second compound 0.1 µM, first compound 0.000999 µM) was 87.7%, the viability, T/C (second compound 0.1 µM, first compound 0.00316 µM) was 90.7% and the viability, T/C (second compound 0.1 µM, first compound 0.00999 µM) was 60.1%. For the same molecule, the viability, T/C [7] was 71.3%, the viability, T/C (second compound 0.1 µM, first compound 0.0999 µM) was 79% and the viability, T/C [9] was 17.2%. It also gave a viability, T/C (second compound 0.316 µM, first compound 0.000999 µM) of 57.8%, a viability, T/C (second compound 0.316 µM, first compound 0.00316 µM) of 78.7% and a viability, T/C (second compound 0.316 µM, first compound 0.00999 µM) of 59.6%. It also gave a viability, T/C [13] of 50%, a viability, T/C (second compound 0.316 µM, first compound 0.0999 µM) of 85% and a viability, T/C [15] of 29.6%. For the same molecule, the viability, T/C (second compound 1 µM, first compound 0.000999 µM) was 58.2%, the viability, T/C (second compound 1 µM, first compound 0.00316 µM) was 54.2% and the viability, T/C (second compound 1 µM, first compound 0.00999 µM) was 47.9%. The viability, T/C [19] was 64.3%, the viability, T/C (second compound 1 µM, first compound 0.0999 µM) was 38.9% and the viability, T/C [21] was 21.8%. It also gave a viability, T/C (second compound 3.16 µM, first compound 0.000999 µM) of 45.3%, a viability, T/C (second compound 3.16 µM, first compound 0.00316 µM) of 47.9% and a viability, T/C (second compound 3.16 µM, first compound 0.00999 µM) of 42.6%. It also gave a viability, T/C [25] of 40.3%, a viability, T/C (second compound 3.16 µM, first compound 0.0999 µM) of 28.1% and a viability, T/C [27] of 8.05%. The viability, T/C (second compound 10 µM, first compound 0.000999 µM) was 29.1%, the viability, T/C (second compound 10 µM, first compound 0.00316 µM) was 39.6% and the viability, T/C (second compound 10 µM, first compound 0.00999 µM) was 38.8%. The viability, T/C [31] was 29.3%, the viability, T/C (second compound 10 µM, first compound 0.0999 µM) was 34% and the viability, T/C [33] was 3.25%.
`O=C(NO)c1cnc(N2CCN(S(=O)(=O)c3ccc4ccccc4c3)CC2)nc1` + CN(C)c1ccc(Nc2c3ccc(NC(=O)CCN4CCCC4)cc3nc3cc(NC(=O)CCN4CCCC4)ccc23)cc1 was tested, and the IC50 (second compound 0.0316 µM) was 564 nM, the IC50 (second compound 0.1 µM) was 382 nM and the IC50 (second compound 0.316 µM) was 291 nM. The IC50 (second compound 1 µM) was 385 nM, the IC50 (second compound 3.16 µM) was 207 nM and the IC50 (second compound 10 µM) was < 31.6 nM. The viability, T/C [1] was 97.6%, the viability, T/C [2] was 110% and the viability, T/C [3] was 93.9%. For the same molecule, the viability, T/C [4] was 6.51%, the viability, T/C [5] was 1.16% and the viability, T/C [6] was 0.86%. It also gave a viability, T/C [7] of 77.9%, a viability, T/C [8] of 138% and a viability, T/C [9] of 59.3%. It also gave a viability, T/C [10] of 5.11%, a viability, T/C [11] of 0.78% and a viability, T/C [12] of 1.12%. It also gave a viability, T/C [13] of 61%, a viability, T/C [14] of 90.4% and a viability, T/C [15] of 48%. For the same molecule, the viability, T/C [16] was 4.4%, the viability, T/C [17] was 1.75% and the viability, T/C [18] was 1.22%. The viability, T/C [19] was 70%, the viability, T/C [20] was 85.4% and the viability, T/C [21] was 59.9%. For the same molecule, the viability, T/C [22] was 1.33%, the viability, T/C [23] was 1.89% and the viability, T/C [24] was 2.09%. For the same molecule, the viability, T/C [25] was 74.2%, the viability, T/C [26] was 68.7% and the viability, T/C [27] was 38.8%. For the same molecule, the viability, T/C [28] was 3.01%, the viability, T/C [29] was 1.99% and the viability, T/C [30] was 0.85%. It also gave a viability, T/C [31] of 35.5%, a viability, T/C [32] of 45.6% and a viability, T/C [33] of 25.5%. It also gave a viability, T/C [34] of 5.18%, a viability, T/C [35] of 1.04% and a viability, T/C [36] of 1.85%.
